The text below walks through data of patent publication US20230277518A1, “NK RECEPTOR ANTAGONISTS FOR CANCER PATIENTS” (Acer Therapeutics Inc., priority 2020, published 2023).

The conditions of data set [1]: human, in vivo; cited from earlier work.
The target of another data set is CYP3A4 (Homo sapiens, UniProt P08684). Conditions: liver; cited from earlier work.
For data set [2] the following is noted: oral dosing, set in the multiple-dose PK model; cited from earlier work.
In the next data set the target is CYP2D6 (Homo sapiens, UniProt P10635). Conditions: cited from earlier work.
Sequence of CYP2D6 (P10635 whole entry): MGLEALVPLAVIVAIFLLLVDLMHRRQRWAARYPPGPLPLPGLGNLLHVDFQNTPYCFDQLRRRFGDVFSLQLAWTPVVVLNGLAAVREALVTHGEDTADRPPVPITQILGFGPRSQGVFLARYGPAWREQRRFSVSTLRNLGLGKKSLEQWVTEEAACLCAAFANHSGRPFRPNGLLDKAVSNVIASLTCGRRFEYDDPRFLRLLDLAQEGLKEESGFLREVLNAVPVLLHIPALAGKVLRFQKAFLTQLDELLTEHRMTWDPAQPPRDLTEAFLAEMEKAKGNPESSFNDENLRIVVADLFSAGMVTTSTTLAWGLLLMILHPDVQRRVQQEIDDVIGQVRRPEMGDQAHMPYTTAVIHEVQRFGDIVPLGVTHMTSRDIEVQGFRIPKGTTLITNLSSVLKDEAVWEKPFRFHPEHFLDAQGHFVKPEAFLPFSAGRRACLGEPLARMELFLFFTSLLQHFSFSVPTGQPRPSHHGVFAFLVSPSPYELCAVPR
A short description of data set [3]: Two-compartment PK model of osanetant fit to the Sanofi single-dose study. Conditions: two-compartment model parameter. The arrangement: species or system human. The source says:
Osanetant (SR 142801) is an NK3 receptor antagonist originally identified by Sanofi. Patacchini R. et al. 1995, Eur J Pharmacol 278 (1):17-25; Nguyen-Le X. K. et al. 1996, Pharmacology 52 (5):283-91; Beaujouan J. C. et al. 1997, Eur J Pharmacol 319 (2-3):307-16; Emonds-Alt X. et al. 1995, Life Sci 56 (1):P127-32). Osanetant pharmacokinetics (PK) was derived from a Study Report by Sanofi describing concentration curves and PK summary data. A two-compartment PK model was derived from the data the concentration: time curves. […] A two-compartment pharmacokinetic model was fit to the single-dose study in the Sanofi Study report.

The conditions of data set [4]: animal study; cited from earlier work.

Sequence of CYP3A4 (P08684 whole entry): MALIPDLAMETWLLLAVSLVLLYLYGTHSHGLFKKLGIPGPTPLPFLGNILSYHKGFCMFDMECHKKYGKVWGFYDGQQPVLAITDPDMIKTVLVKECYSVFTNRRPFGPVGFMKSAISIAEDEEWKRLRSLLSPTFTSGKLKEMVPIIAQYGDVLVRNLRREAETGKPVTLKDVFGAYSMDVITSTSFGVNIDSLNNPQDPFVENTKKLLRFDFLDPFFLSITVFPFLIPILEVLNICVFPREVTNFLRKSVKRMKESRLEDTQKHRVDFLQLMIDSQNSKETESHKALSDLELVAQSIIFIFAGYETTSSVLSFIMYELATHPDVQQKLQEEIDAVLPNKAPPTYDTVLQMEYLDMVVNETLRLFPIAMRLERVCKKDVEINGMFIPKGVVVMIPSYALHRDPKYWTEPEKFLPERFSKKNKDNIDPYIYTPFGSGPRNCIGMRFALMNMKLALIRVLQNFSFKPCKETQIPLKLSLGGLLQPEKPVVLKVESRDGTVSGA

In the case of `CCNC(=O)[C@@H]1CCCN1C(=O)[C@H](CCCNC(=N)N)NC(=O)[C@H](CC(C)C)NC(=O)[C@@H](CC(C)C)NC(=O)[C@H](Cc1ccc(O)cc1)NC(=O)[C@H](CO)NC(=O)[C@H](Cc1c[nH]c2ccccc12)NC(=O)[C@H](Cc1c[nH]cn1)NC(=O)[C@@H]1CCC(=O)N1` [leuprolide], in data set [1], the “patients who experience increased frequency and/or duration of VMS” value is “about 80%”.
Turning to `CC(=O)N(C)C1(c2ccccc2)CCN(CCC[C@]2(c3ccc(Cl)c(Cl)c3)CCCN(C(=O)c3ccccc3)C2)CC1` [osanetant, (R)—N-(1-(3-(1-benzoyl-3-(3,4-dichlorophenyl)piperidin-3-yl)propyl)-4-phenylpiperidin-4-yl)-N-methylacetamide], the clearance mechanism result on CYP3A4 is “CYP3A4 metabolism in the liver is the primary clearance mechanism”. The Bioavailability in data set [2] is recorded as 40%. In addition, at CYP2D6, the CYP2D6 activity result was “inhibits CYP2D6 activity”. Also, in data set [3], the Blood_Liver_transport_k was determined as 0.011 min⁻¹, the Q is 13.9 L/min, the Vol_central turned out to be 620 L and the Vol_periph is given as 1768 L. The molecule further registered a ka in data set [3] of 0.039 min⁻¹. Besides, the Brain/plasma concentration in data set [4] is 0.8.
